Measured values reported in the supplement of paper PMC10307832.

Key:
Experiment in all cases: relative viability (nuclei count vs DMSO), 5 days (fraction); higher = more cells survive
PC-3 [JPC-3] = tested on: PC-3 [JPC-3]
Procedure, shortened: (§1)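 Five library-drug doses in √10 steps were combined with a fixed anchor-drug dose, or a single drug was given alone, by pin tool to lung cancer cell lines in 1536-well plates the day after seeding. Nuclei were stained and counted after 5 days. Relative viability is the nuclei count in treated wells over that in vehicle wells, taken as the median of duplicate plates.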

SW 900 = tested on: SW 900
Procedure, shortened: as §1

H3255 = tested on: H3255
Procedure, shortened: as §1

NCI-H1666 = tested on: NCI-H1666
Procedure, shortened: as §1

LK-2 = tested on: LK-2
Procedure, shortened: as §1

NCI-H23 = tested on: NCI-H23
Procedure, shortened: as §1

SK-MES-1 = tested on: SK-MES-1
Procedure, shortened: as §1

HCC-366 = tested on: HCC-366
Procedure, shortened: as §1

COR-L 105 = tested on: COR-L 105
Procedure, shortened: as §1

NCI-H1755 = tested on: NCI-H1755
Procedure, shortened: as §1

A-427 = tested on: A-427
Procedure, shortened: as §1

LOU-NH91 = tested on: LOU-NH91
Procedure, shortened: as §1

NCI-H2170 = tested on: NCI-H2170
Procedure, shortened: as §1

NCI-H1975 = tested on: NCI-H1975
Procedure, shortened: as §1

ChaGo-K-1 = tested on: ChaGo-K-1
Procedure, shortened: as §1

EKVX = tested on: EKVX
Procedure, shortened: as §1

NCI-H441 = tested on: NCI-H441
Procedure, shortened: as §1

NCI-H520 = tested on: NCI-H520
Procedure, shortened: as §1

NCI-H1734 = tested on: NCI-H1734
Procedure, shortened: as §1

EMC-BAC-2 = tested on: EMC-BAC-2
Procedure, shortened: as §1

`O=c1cc(N2CCOCC2)oc2c(-c3cccc4c3sc3ccccc34)cccc12` + CC(=O)c1c(C)c2cnc(Nc3ccc(N4CCNCC4)cn3)nc2n(C2CCCC2)c1=O [Palbociclib] (partner 0.5 µM) gave a relative viability (PC-3 [JPC-3]; first compound 0.01 µM) of 0.548, a relative viability (PC-3 [JPC-3]; first compound 0.03162 µM) of 0.519 and a relative viability (PC-3 [JPC-3]; first compound 0.1 µM) of 0.306. It also gave a relative viability (PC-3 [JPC-3]; first compound 0.3162 µM) of 0.557, a relative viability (PC-3 [JPC-3]; first compound 1 µM) of 0.511 and a relative viability (SW 900; first compound 0.03162 µM) of 0.473. For the same molecule, the relative viability (SW 900; first compound 0.1 µM) was 0.567, the relative viability (SW 900; first compound 0.3162 µM) was 0.507 and the relative viability (SW 900; first compound 1 µM) was 0.517. The relative viability (H3255; first compound 0.01 µM) was 0.314, the relative viability (H3255; first compound 0.03162 µM) was 0.325 and the relative viability (H3255; first compound 0.1 µM) was 0.306. The relative viability (H3255; first compound 0.3162 µM) was 0.314, the relative viability (H3255; first compound 1 µM) was 0.312 and the relative viability (NCI-H1666; first compound 0.01 µM) was 0.663. It also gave a relative viability (NCI-H1666; first compound 0.03162 µM) of 0.593, a relative viability (NCI-H1666; first compound 0.1 µM) of 0.709 and a relative viability (NCI-H1666; first compound 0.3162 µM) of 0.651. For the same molecule, the relative viability (NCI-H1666; first compound 1 µM) was 0.643, the relative viability (LK-2; first compound 0.01 µM) was 0.83 and the relative viability (LK-2; first compound 0.03162 µM) was 0.768. The relative viability (LK-2; first compound 0.1 µM) was 0.587, the relative viability (LK-2; first compound 0.3162 µM) was 0.638 and the relative viability (LK-2; first compound 1 µM) was 0.77. The relative viability (NCI-H23; first compound 0.01 µM) was 0.464, the relative viability (NCI-H23; first compound 0.03162 µM) was 0.524 and the relative viability (NCI-H23; first compound 0.3162 µM) was 0.485. The relative viability (NCI-H23; first compound 1 µM) was 0.473, the relative viability (SK-MES-1; first compound 0.01 µM) was 0.274 and the relative viability (SK-MES-1; first compound 0.03162 µM) was 0.343. It also gave a relative viability (SK-MES-1; first compound 0.1 µM) of 0.359, a relative viability (SK-MES-1; first compound 0.3162 µM) of 0.341 and a relative viability (SK-MES-1; first compound 1 µM) of 0.295. It also gave a relative viability (HCC-366; first compound 0.01 µM) of 0.371, a relative viability (HCC-366; first compound 0.03162 µM) of 0.417 and a relative viability (HCC-366; first compound 0.1 µM) of 0.409. The relative viability (HCC-366; first compound 0.3162 µM) was 0.367, the relative viability (HCC-366; first compound 1 µM) was 0.382 and the relative viability (COR-L 105; first compound 0.01 µM) was 0.41. It also gave a relative viability (COR-L 105; first compound 0.03162 µM) of 0.468, a relative viability (COR-L 105; first compound 0.1 µM) of 0.438 and a relative viability (COR-L 105; first compound 0.3162 µM) of 0.409. For the same molecule, the relative viability (COR-L 105; first compound 1 µM) was 0.386, the relative viability (NCI-H1755; first compound 0.01 µM) was 0.475 and the relative viability (NCI-H1755; first compound 0.03162 µM) was 0.455. The relative viability (NCI-H1755; first compound 0.1 µM) was 0.488, the relative viability (NCI-H1755; first compound 0.3162 µM) was 0.457 and the relative viability (NCI-H1755; first compound 1 µM) was 0.456. It also gave a relative viability (A-427; first compound 0.01 µM) of 0.533, a relative viability (A-427; first compound 0.03162 µM) of 0.52 and a relative viability (A-427; first compound 0.1 µM) of 0.528. The relative viability (A-427; first compound 0.3162 µM) was 0.508, the relative viability (A-427; first compound 1 µM) was 0.513 and the relative viability (LOU-NH91; first compound 0.01 µM) was 0.525. The relative viability (LOU-NH91; first compound 0.03162 µM) was 0.527, the relative viability (LOU-NH91; first compound 0.1 µM) was 0.522 and the relative viability (LOU-NH91; first compound 0.3162 µM) was 0.537. It also gave a relative viability (LOU-NH91; first compound 1 µM) of 0.574, a relative viability (NCI-H2170; first compound 0.01 µM) of 0.424 and a relative viability (NCI-H2170; first compound 0.03162 µM) of 0.422. It also gave a relative viability (NCI-H2170; first compound 0.1 µM) of 0.408, a relative viability (NCI-H2170; first compound 0.3162 µM) of 0.405 and a relative viability (NCI-H2170; first compound 1 µM) of 0.371. It also gave a relative viability (NCI-H1975; first compound 0.01 µM) of 0.61, a relative viability (NCI-H1975; first compound 0.03162 µM) of 0.609 and a relative viability (NCI-H1975; first compound 0.1 µM) of 0.626. It also gave a relative viability (NCI-H1975; first compound 0.3162 µM) of 0.529, a relative viability (NCI-H1975; first compound 1 µM) of 0.591 and a relative viability (ChaGo-K-1; first compound 0.01 µM) of 0.884. The relative viability (ChaGo-K-1; first compound 0.03162 µM) was 0.91, the relative viability (ChaGo-K-1; first compound 0.1 µM) was 0.964 and the relative viability (ChaGo-K-1; first compound 0.3162 µM) was 0.947. For the same molecule, the relative viability (ChaGo-K-1; first compound 1 µM) was 0.954, the relative viability (EKVX; first compound 0.01 µM) was 0.376 and the relative viability (EKVX; first compound 0.03162 µM) was 0.363. For the same molecule, the relative viability (EKVX; first compound 0.1 µM) was 0.484, the relative viability (EKVX; first compound 0.3162 µM) was 0.43 and the relative viability (EKVX; first compound 1 µM) was 0.332. For the same molecule, the relative viability (NCI-H441; first compound 0.01 µM) was 0.21, the relative viability (NCI-H441; first compound 0.03162 µM) was 0.217 and the relative viability (NCI-H441; first compound 0.1 µM) was 0.207. For the same molecule, the relative viability (NCI-H441; first compound 0.3162 µM) was 0.233, the relative viability (NCI-H441; first compound 1 µM) was 0.222 and the relative viability (NCI-H520; first compound 0.01 µM) was 0.238. For the same molecule, the relative viability (NCI-H520; first compound 0.03162 µM) was 0.224, the relative viability (NCI-H520; first compound 0.1 µM) was 0.207 and the relative viability (NCI-H520; first compound 0.3162 µM) was 0.235. For the same molecule, the relative viability (NCI-H520; first compound 1 µM) was 0.202, the relative viability (NCI-H1734; first compound 0.01 µM) was 0.324 and the relative viability (NCI-H1734; first compound 0.03162 µM) was 0.342. It also gave a relative viability (NCI-H1734; first compound 0.1 µM) of 0.434, a relative viability (NCI-H1734; first compound 0.3162 µM) of 0.352 and a relative viability (NCI-H1734; first compound 1 µM) of 0.374. For the same molecule, the relative viability (EMC-BAC-2; first compound 0.01 µM) was 0.525, the relative viability (EMC-BAC-2; first compound 0.03162 µM) was 0.541 and the relative viability (EMC-BAC-2; first compound 0.1 µM) was 0.55. For the same molecule, the relative viability (EMC-BAC-2; first compound 0.3162 µM) was 0.51 and the relative viability (EMC-BAC-2; first compound 1 µM) was 0.497.
